Data: paper PMC6321621, “Design of a Novel and Selective IRAK4 Inhibitor Using Topological Water Network Analysis and Molecular Modeling Approaches” (Molecules, 2018)

Legend:
Assay type in all cases: biochemical
IRAK4 (h) = biological target: T1, IRAK4 (h) (Homo sapiens, UniProt Q9NWZ3); test: Enzymatic assay for IRAK4 (radiometric, Eurofins); conditions: for IC50: in vitro enzymatic assay, duplicate, average, read-out: IC50 against IRAK4
T1 construct: purchased Eurofins Scientific Inc. Korea (contract assay service)
T1 sequence (Q9NWZ3 1-460): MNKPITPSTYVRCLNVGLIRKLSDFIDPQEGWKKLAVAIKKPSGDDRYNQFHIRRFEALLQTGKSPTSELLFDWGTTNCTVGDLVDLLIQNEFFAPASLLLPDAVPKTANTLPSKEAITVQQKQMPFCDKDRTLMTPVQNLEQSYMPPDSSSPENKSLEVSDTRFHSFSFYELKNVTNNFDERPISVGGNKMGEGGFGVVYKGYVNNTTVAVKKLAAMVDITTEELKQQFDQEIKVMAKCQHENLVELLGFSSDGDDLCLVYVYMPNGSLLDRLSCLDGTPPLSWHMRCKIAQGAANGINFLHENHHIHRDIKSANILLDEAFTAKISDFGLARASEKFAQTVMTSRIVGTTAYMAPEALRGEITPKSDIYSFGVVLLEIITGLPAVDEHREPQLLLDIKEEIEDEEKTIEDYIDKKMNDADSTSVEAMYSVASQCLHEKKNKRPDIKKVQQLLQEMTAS
Procedure: (§1) Enzymatic assays for IRAK4, ASK1, ITK, and LYN were performed by Eurofins Scientific Inc. Korea (Brussels, Belgium). All assays were performed in duplicate, and the average IC50 value was reported.
(§2) IRAK4 (h) was incubated with 8 mM MOPS pH 7.0, 0.2 mM EDTA, 0.33 mg/mL myelin basic protein, 10 mM Mg acetate and [γ-^33P]-ATP (specific activity approx. 500 cpm/pmol, concentration as required). The reaction was initiated by the addition of a MgATP mix. After incubation for 40 min at room temperature, the reaction was stopped by the addition of 3% phosphoric acid solution. A total of 10 μL of the reaction was then spotted onto a P30 filtermat and washed three times for 5 min in 75 mM phosphoric acid, and once in methanol prior to drying and scintillation counting.

ASK1 (h) = biological target: T2, ASK1 (h) (Homo sapiens, UniProt Q99683); test: Enzymatic assay for ASK1 (radiometric, Eurofins); conditions: in vitro enzymatic assay, duplicate, average; read-out: IC50 against ASK1
T2 construct: purchased Eurofins Scientific Inc. Korea (contract assay service)
T2 sequence (Q99683 1-1374): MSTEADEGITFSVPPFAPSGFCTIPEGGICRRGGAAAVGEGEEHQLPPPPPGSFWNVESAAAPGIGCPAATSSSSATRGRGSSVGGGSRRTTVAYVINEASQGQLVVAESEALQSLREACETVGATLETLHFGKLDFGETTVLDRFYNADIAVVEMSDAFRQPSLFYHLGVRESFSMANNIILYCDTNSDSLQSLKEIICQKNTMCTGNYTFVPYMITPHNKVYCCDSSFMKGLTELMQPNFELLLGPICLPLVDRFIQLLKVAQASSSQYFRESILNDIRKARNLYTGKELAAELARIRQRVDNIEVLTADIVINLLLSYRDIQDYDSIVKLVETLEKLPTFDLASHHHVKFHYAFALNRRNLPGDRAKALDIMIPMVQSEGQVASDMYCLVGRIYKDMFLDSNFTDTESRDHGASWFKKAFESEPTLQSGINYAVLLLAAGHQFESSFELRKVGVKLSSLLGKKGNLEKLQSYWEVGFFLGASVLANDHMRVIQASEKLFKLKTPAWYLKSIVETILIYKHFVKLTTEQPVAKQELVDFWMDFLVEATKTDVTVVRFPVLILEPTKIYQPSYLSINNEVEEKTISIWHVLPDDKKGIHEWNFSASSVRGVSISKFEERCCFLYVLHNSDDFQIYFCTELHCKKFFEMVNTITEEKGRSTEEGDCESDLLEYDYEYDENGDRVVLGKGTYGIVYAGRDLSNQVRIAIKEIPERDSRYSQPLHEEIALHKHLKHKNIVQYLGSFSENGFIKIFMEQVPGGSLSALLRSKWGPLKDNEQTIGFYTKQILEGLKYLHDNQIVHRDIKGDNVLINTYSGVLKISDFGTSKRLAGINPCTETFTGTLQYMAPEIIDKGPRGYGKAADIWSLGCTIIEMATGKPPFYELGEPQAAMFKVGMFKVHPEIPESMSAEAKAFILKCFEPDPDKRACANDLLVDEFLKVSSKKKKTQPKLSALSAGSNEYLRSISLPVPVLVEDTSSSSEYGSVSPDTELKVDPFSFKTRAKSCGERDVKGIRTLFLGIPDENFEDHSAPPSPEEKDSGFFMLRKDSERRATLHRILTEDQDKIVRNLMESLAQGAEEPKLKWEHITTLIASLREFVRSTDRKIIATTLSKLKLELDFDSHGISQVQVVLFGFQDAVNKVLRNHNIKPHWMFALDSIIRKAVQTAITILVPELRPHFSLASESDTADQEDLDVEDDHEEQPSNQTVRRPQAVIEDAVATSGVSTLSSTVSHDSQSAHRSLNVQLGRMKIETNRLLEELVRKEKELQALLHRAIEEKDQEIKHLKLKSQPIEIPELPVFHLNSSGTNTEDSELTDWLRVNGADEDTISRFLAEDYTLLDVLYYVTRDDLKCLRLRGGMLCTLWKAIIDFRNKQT
Procedure: as §1
as §2, with “ASK1 (h)” for “IRAK4 (h)”, “of the” for “of a”

LYN (h) = biological target: T3, LYN (h) (Homo sapiens, UniProt P07948); test: Enzymatic assay for LYN (radiometric, Eurofins); conditions: in vitro enzymatic assay, duplicate, average; read-out: IC50 against LYN
T3 construct: purchased Eurofins Scientific Inc. Korea (contract assay service)
Procedure: Enzymatic assays for IRAK4, ASK1, ITK, and LYN were performed by Eurofins Scientific Inc. Korea (Brussels, Belgium). All assays were performed in duplicate, and the average IC50 value was reported. LYN (h) was incubated with 50 mM Tris pH 7.5, 0.1 mM EGTA, 0.1 mM Na3VO4, 0.1% […], 0.1 mg/mL poly(Glu, Tyr) 4:1, 10 mM Mg acetate, and [γ-^33P]-ATP (specific activity approx. 500 cpm/pmol, concentration as required). The reaction was initiated by the addition of the MgATP mix. After incubation for 40 min at room temperature, the reaction was stopped by the addition of 3% phosphoric acid solution. A total of 10 μL of the reaction was then spotted onto a Filtermat A and washed three times for 5 min in 75 mM phosphoric acid, and once in methanol prior to drying and scintillation counting.

ITK (h) = biological target: T4, ITK (h) (Homo sapiens, UniProt Q08881); test: Enzymatic assay for ITK (radiometric, Eurofins); conditions: in vitro enzymatic assay, duplicate, average; read-out: IC50 against ITK
T4 construct: purchased Eurofins Scientific Inc. Korea (contract assay service)
T4 sequence (Q08881 1-620): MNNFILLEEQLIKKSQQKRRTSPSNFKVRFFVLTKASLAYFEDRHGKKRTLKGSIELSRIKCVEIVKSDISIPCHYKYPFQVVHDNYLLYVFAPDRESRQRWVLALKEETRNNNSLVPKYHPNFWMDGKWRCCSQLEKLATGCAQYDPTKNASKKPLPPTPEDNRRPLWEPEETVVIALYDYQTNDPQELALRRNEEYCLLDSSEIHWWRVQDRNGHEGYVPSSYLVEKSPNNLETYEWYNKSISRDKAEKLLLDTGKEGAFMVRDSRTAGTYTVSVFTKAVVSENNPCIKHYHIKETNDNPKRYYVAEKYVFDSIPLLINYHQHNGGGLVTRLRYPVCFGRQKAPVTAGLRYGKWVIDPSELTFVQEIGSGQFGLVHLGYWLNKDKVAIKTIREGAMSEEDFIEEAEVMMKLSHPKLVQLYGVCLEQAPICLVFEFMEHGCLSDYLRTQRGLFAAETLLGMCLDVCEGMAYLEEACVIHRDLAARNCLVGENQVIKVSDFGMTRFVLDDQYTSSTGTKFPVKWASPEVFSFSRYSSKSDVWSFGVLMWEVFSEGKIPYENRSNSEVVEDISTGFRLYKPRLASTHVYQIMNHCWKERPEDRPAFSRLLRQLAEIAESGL
Procedure: Enzymatic assays for IRAK4, ASK1, ITK, and LYN were performed by Eurofins Scientific Inc. Korea (Brussels, Belgium). All assays were performed in duplicate, and the average IC50 value was reported. ITK (h) was incubated with 8 mM MOPS pH 7.0, 0.2 mM EDTA, 0.33 mg/mL myelin basic protein, 10 mM Mg acetate, and [γ-^33P]-ATP (specific activity approx. 500 cpm/pmol, concentration as required). The reaction was initiated by the addition of the MgATP mix. After incubation for 40 min at room temperature, the reaction was stopped by the addition of 3% phosphoric acid solution. A total of 10 μL of the reaction was then spotted onto a P30 filtermat and washed three times for 5 min in 75 mM phosphoric acid, and once in methanol prior to drying and scintillation counting.

T3 sequence (P07948 whole entry): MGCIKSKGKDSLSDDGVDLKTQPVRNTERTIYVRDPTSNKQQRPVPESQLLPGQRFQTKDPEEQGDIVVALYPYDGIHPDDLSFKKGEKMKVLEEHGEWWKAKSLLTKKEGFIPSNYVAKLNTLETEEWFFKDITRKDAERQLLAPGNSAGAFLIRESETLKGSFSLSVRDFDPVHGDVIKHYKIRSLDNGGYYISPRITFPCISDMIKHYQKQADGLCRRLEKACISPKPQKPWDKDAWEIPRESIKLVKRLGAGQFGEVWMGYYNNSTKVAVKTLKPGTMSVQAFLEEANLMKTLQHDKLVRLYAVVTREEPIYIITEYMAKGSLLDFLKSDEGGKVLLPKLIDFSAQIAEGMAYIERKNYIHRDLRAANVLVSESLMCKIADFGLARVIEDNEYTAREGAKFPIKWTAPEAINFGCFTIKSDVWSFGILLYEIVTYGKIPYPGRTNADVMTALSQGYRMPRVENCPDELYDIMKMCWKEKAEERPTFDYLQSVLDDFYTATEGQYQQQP

inhibition of IRAK4 (IRAK4 (h); at 10 μM) [%]	IC50 (IRAK4 (h)) [nM]	IC50 (ASK1 (h)) [nM]	IC50 (LYN (h)) [nM]	IC50 (ITK (h)) [nM]	Molecule
97	158	–	–	–	4-(5-Benzylamino-imidazo[4,5-b]pyridine-1-yl)-benzonitrile [Compound 3]
–	187	53	2390	1670	CC(C)(C)c1ccc(C(=O)Nc2cn3cc(-n4ccnc4)ccc3n2)cc1 [Compound 1]
–	6650	–	–	–	COCc1nc2ccc(NC(=O)c3ccc(Br)o3)cc2[nH]1 [Compound 2]
